Results as given in US8569242B2, “Method of treating degenerative disorders of the nervous system” (The Regents of the University of California, priority 2005, dated 2013).

Tests used:
[1] = system: PLP139-151 EAE in SJL/J mice; test: PLP139-151 EAE after vaccination with γ^377-395 peptide; assay type: in vivo, mouse
Procedure: Induction of EAE. EAE was induced in 6 week old female SJL/J or C57BL/6 mice by subcutaneous immunization with 150 μg PLP139-151 (HSLGKWLGHPDKF) (SEQ ID NO: 5). American Peptide Company and Azco Pharmchem, San Jose, Calif.) or 50 μg MOG35-55 ([…]) (SEQ ID NO: 6), Sigma-Aldrich, St. Louis, Mo.) in complete Freund's adjuvant (Sigma-Aldrich, St. Louis, Mo.) supplemented with […] heat inactivated mycobacterium tuberculosis H37Ra (Difco Laboratories, Detroit, Mich.). Mice were injected intravenously with 200 ng pertussis toxin (Sigma-Aldrich, St. Louis, Mo.) on days 0 and 2 of the immunization. Mice were scored daily. 0: no symptoms, 1: loss of tail tone, 2: ataxia, 3: hindlimb paralysis, 4: hindlimb and forelimb paralysis, 5: moribund Data are represented as the mean clinical score and are mean±SEM. Statistical calculations were made by using Student's t test.
Fibrinogen γ^377-395 peptide vaccination. Vaccination was performed as described (56) with the following modifications. Five week old female SJL/J mice were immunized with 200 μg fibrinogen γ^377-395 peptide (YSMKETTMKIIPFNRLSIG) (SEQ ID NO: 2), Azco Pharmchem, San Jose, Calif.) emulsified with an equal volume of incomplete freund's adjuvant (Sigma-Aldrich, St. Louis, Mo.). Mice were immunized four times in alternating rear flanks over the course of two weeks. Control animals were immunized with incomplete Freund's adjuvant.
Histopathology. Histopathologic analysis and quantification of inflammation and demyelination in mouse tissue was performed on cryostat or paraffin sections as described (57). Sections were stained with luxol fast blue and nuclear red. Spinal cord sections were fixed with 2% PFA for 10 minutes at 4° C. and immunostained with a sheep anti-fibrinogen antibody (1:200, US Biological, Swampscott, Mass.), rat anti-CD11b (1:5, Chemicon), von Willebrand Factor (1:1000, Dakocytomation, Glostrup, Denmark), iNOS (polyclonal Chemicon, Temecula, Calif., 1:750), Mac-3 (rat-anti-mouse, Pharmingen, San Diego, Calif., 1:200), CNPase (monoclonal, Sternberger monoclonals, Lutherville, Md., 1:2000). For human MS, paraffin embedded material was obtained from the Archives of the Center for Brain Research, Medical University of Vienna. Double immunofluorescence was performed with antibodies against CD68 and fibrin. Images were collected using an Axioplan 2 Zeiss microscope with an Axiocam HRc camera or were processed for confocal microscopy using Olympus and Zeiss confocal microscopes.
Rotarod behavior test. The rotarod assay was performed on a TSE accelerating Rotarod apparatus (TSE Technical and Scientific Equipment GmbH) as described (58). Rotarod assays were conducted with a 300 second maximum time limit and means were collected for at least three trials. Statistical calculations were made by using Students t test.

[2] = system: Mac-1 overexpressing cells; conditions: reference (37); cited from earlier work

Substance: tyr-ser-met-lys-lys-thr-thr-met-lys-ile-ile-pro-phe-asn-arg-leu-thr-ile-gly (YSMKKTTMKIIPFNRLTIG) (listed as Homo sapiens) [γ^377-395 peptide]
- vaccinated mice that developed EAE ([1]; 8/15, all control mice 15/15, 200 μg peptide in IFA four times before EAE induction): 53%
- rotarod: increase in motor strength and coordination vs control mice ([1]; vaccinated mice): 76%
- histopathology index, brain ([1]; vaccinated mice, control 2.3±1): 1.5±2
- histopathology index, spinal cord ([1]; vaccinated mice, control 12±5.2): 6.5±5.9
- average clinical score ([1]; vaccinated mice, control group 2.5, scale 0-5): 1.1
- concentration shown to inhibit adhesion of Mac-1 overexpressing cells to immobilized fibrinogen [2]: 200 µM
